{"source": "patent US20140113342A1", "about": "“Production of 1,2-Propanediol in Cyanobacteria” (Algenol Biofuels Inc., priority 2012, published 2014)", "key": {"[1]": {"system": "Synechocystis sp. PCC 6803", "test": "Tolerance testing to 1,2-propanediol added to culture medium", "type": "cell-based", "conditions": "one week", "description": "(§1) The tolerance of cyanobacterial strains PCC 6803 and PCC 7002 to the presence of accumulated 1,2-propanediol in the culture medium was examined by adding a one time bolus of varying amounts of 1,2-propanediol (1%, 2%, 3% and 5%) to exponential phase cultures and comparing the growth of these cultures to a wild type culture with no addition. Growth was monitored by optical density (OD750) for one week. […] PCC 7002."}, "[2]": {"system": "Synechococcus sp. PCC 7002", "test": "Tolerance testing to 1,2-propanediol added to culture medium", "type": "cell-based", "conditions": "one week", "description": "as §1"}, "[3]": {"conditions": "1%, 2%, 3% and 5% 1,2-propanediol"}, "[4]": {"conditions": "up to 3% 1,2-propanediol, one time bolus to exponential phase culture"}}}
{"smiles": "CC(O)CO", "note": "(centres unmarked) [1,2-propanediol]", "values": [{"measurement": "lethal effect (complete bleaching)", "setting": "[1]; [3]", "value": "No lethal effect"}, {"measurement": "growth of cultures (OD750) compared to wild type culture with no addition", "setting": "[1]; 5% 1,2-propanediol, one time bolus", "value": "less growth, discoloration and clumping"}, {"measurement": "growth of cultures (OD750) compared to wild type culture with no addition", "setting": "[1]; [4]", "value": "no difference in the growth"}, {"measurement": "lethal effect (complete bleaching)", "setting": "[2]; [3]", "value": "No lethal effect"}, {"measurement": "growth of cultures (OD750) compared to wild type culture with no addition", "setting": "[2]; [4]", "value": "no difference in the growth"}]}
